Data on one compound can be found in patent US20080193374A1, “Liposomes Enclosing a Radionuclide and a Cytotoxic Agent for Combination Therapy” (priority 2004, published 2008).

Data set [1] has as its system OHS osteosarcoma xenografts. Nature of the data set: Tissue distribution of 223Ra in Caelyx liposomes, nude mice with OHS osteosarcoma xenografts (Example 2). The class given is in vivo. The procedure:
10 nude mice were prepared with OHS osteosarcoma xenografts. Each mouse was trated subcutaneously with one dose of 375 kBq/kg of 223Ra encapsulated in Caelyx lipsomes as prepared in Example 1.
After 1 hour, one day and four days, three, three and four animals were sacrificed respectively and the tissue distribution of radioactive material was measured.
The distribution of radionuclide was also compared with a control in which the radium was administered as a salt in a solution of liposomes but not encapsulated thereby.

Data set [2] in a line: Main biodistribution and blood clearance study with four days pre-treatment; liposomal vs free 223Ra (Example 4). The conditions noted are these: i.v. Type of data set: in vivo, Balb/C mice. The procedure: In the main study, the mice were divided into four different groups. Each group consisted of 6-7 animals of both sexes. […] One mouse in each of groups two, three and four, were left untreated and were used to measure possible reuptake of the product from faeces or the bedding.
Blood was withdrawn, the mice were euthanised and the radioactivity measurements were performed in the same manner as in Example 3, 1 hour, 24 hours, 6 days and 14 days post injection for the respective groups of mice.
To study the difference between liposomally encapsulated and free ^223Ra, a group of mice was injected intravenously with dissolved ^223RaCl.

Each structure is given as a SMILES string.

Turning to `[Cl][223Ra][Cl]` [free ^223Ra, ^223RaCl], in data set [1], the clearance from blood entry is on record as “rapid clearance”. Also, the “half-life (T1/2) circulating in the blood” value in data set [2] is given as “less than 1 hours”.
